Experimental data from publication PMC7402526, “An in vitro quantitative systems pharmacology approach for deconvolving mechanisms of drug-induced, multilineage cytopenias” (PLoS Computational Biology, 2020).

Experiments:
[1] = test system: granulocyte progenitor (Gran-lin prog); assay: MLTA, GranP: concentration-response and QSP model fit; type: cell-based, human; settings: Homo sapiens, 144 h
Outline: (§1)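 Freeze-thawed primary human bone marrow CD34+ cells were cultured 6 days in SFEM II with a cytokine cocktail, drug added on day 0. Subsets were counted by 17-parameter flow cytometry with TruCount beads and normalized to vehicle wells. An Emax QSP model (Emax 0–2, L1 regularization) was fitted to these counts.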

[2] = test system: total viable cells (totalViableCells); assay: MLTA, total live cells concentration-response; type: cell-based; settings: Homo sapiens, 144 h, 6 days, normalized to vehicle control, read-out: total_live normalized cell count
Outline: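 Freeze-thawed primary human bone marrow CD34+ cells in SFEM II with cytokine cocktail, drug added day 0, 6 days at 37°C, 5% CO2. Live/dead counts by 17-parameter flow cytometry with DAPI exclusion, bead-normalized, volume-corrected to cells/mL. Normalized per donor to mean of six vehicle wells; 2–7 donors pooled.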

[3] = test system: late erythroid cells (Eryth II); assay: MLTA, ErythII: concentration-response and QSP model fit; type: cell-based, human; settings: Homo sapiens, 144 h
Outline: (§2)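 Drug was added at time 0 to thawed human bone marrow CD34+ cells in SFEM II plus a cytokine cocktail. After 6 days at 37°C, subsets were counted by surface-marker flow with TruCount beads. Vehicle-normalized, donor-pooled data then fed an Emax model separating anti-proliferative from cell-killing effects.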

[4] = test system: early erythroid cells (Eryth I); assay: MLTA, ErythI: concentration-response and QSP model fit; type: cell-based, human
Outline: as §1

[5] = test system: neutrophils (neutrophil-lin); assay: MLTA, Neut: concentration-response and QSP model fit; type: cell-based, human; settings: Homo sapiens, Neutrophil, 144 h
Outline: as §2

[6] = test system: multi-potent progenitors (MPPs); assay: MLTA, MPPs: concentration-response and QSP model fit; type: cell-based, human; settings: Homo sapiens, 144 h
Outline: as §2

[7] = test system: monocyte progenitors (monocyte prog); assay: MLTA, MonoP: concentration-response and QSP model fit; type: cell-based, human
Outline: as §1

[8] = test system: human bone marrow-derived CD34+ cells differentiated into multiple hematopoietic lineages; assay: MLTA, overall effects across hematopoietic lineages; type: cell-based; settings: QSP model fit; EmaxT > 1.0 = cell-killing
Method: A custom optimized cytokine cocktail was developed using commercially available cytokines (Peprotech, New Jersey) to facilitate simultaneous multi-lineage differentiation and self-renewal of freeze-thawed primary human bone marrow-derived CD34+ cells in SFEM II media (cells and media from StemCell Technologies, Vancouver). Cultures were carried out in ultra-low attachment 96-well plates (Corning, New York) with test article added on day 0 and cultured at 37°C, 85% relative humidity, and 5% CO2 for six days before interrogating drug impact via 17-parameter flow cytometry.
The flow cytometry panel used to define hematopoietic subsets was composed of CD34-PECy7, CD90-PECY5, CD38-AF488, CD371-PE, CD45Ra-BV421, CD14-BV605, CD42b-AF647, CD10-PEDazzle594, CD235a-PerCPCy5.5 (BioLegend, California), CD15-BUV395, CD41a-APCH7, CD71-BV786 (BD Biosciences, California), and DAPI for dead cell exclusion (ThermoFisher, California). In short, Day 6 cells were harvested, FcR-blocked (FcR binding inhibitor, ThermoFisher), surface-stained, then analyzed in a buffer containing TruCount Control Beads using a BD LSR Fortessa SORP fitted with a high-throughput sampler (BD Biosciences, California). Data was analyzed in Diva 6.0.2 and exported to CSV where after all cell data was transformed to cell per mL then normalized on a per-donor basis to untreated control wells to determine drug impact.
Donor material was collected and cultured as described above. The number of replicate donor samples per drug ranged from 2–7 and varied per drug (S1 Table). Drug treatment was added at time 0 and cells were maintained in culture for 6 days. Concentrations tested for each drug compound are contained in S1 Table. Concentrations were selected to span a range that is clinically useful. Following treatment, cell populations were measured using flow cytometry. We extracted cell counts from flow cytometry data, normalized to bead counts, and corrected for well volume.
Each well was normalized to the average of six vehicle control wells. For drugs that were tested across multiple runs of the assay, vehicle-normalized donor data were pooled, and we used the average of these pooled data for further modeling. Normalized data used as model inputs are included in S1 Table.
We implemented drug effects using an Emax model for the drug’s effect on each cell type. The 13 maximum effect parameters (EmaxT,C) are unitless and can vary between 0 and 2 and where a subscript, C, represents one of the previously described 13 cell types. We adapted a traditional Emax model using the equations below. We interpreted EmaxT values less than or equal to one as anti-proliferative, and EmaxT values greater than one as indicating a cell-killing mechanism in addition to anti-proliferation. The relationships for these effects are included in the model using the following equations. Eq 2 describes the drug anti-proliferative effect in the net proliferation rate for a given cell type. Eq 3 describes the cell-killing EmaxCK effect.

[9] = cell-killing component, max(0, EmaxT-1)

- EC50 ([3]; QSP model fit of 6-day MLTA data, read-out: EC50ErythII): 20.2 nM
- EC50 ([4]; Homo sapiens, 144 h, QSP model fit of 6-day MLTA data, read-out: EC50ErythI): 15.4 nM
- EC50 ([5]; QSP model fit of 6-day MLTA data): 25.1 nM
- EC50 ([7]; Homo sapiens, Monocyte, 144 h, QSP model fit of 6-day MLTA data, read-out: EC50MonoP): 24.8 nM
Compound: CC(=O)O[C@H]1C(=O)[C@@]2(C)[C@H]([C@H](OC(=O)c3ccccc3)[C@]3(O)C[C@H](OC(=O)[C@H](O)[C@@H](NC(=O)c4ccccc4)c4ccccc4)C(C)=C1C3(C)C)[C@]1(OC(C)=O)CO[C@@H]1C[C@@H]2O [paclitaxel]
- activity at 0.0002 µM ([1]; dose 0.2 nM, 6 days, normalized to vehicle control, read-out: GranPs normalized cell count): 114%
- activity at 0.001 µM ([1]; dose 1 nM, 6 days, normalized to vehicle control, read-out: GranPs normalized cell count): 112%
- activity at 0.005 µM ([1]; dose 5 nM, 6 days, normalized to vehicle control, read-out: GranPs normalized cell count): 106%
- activity at 0.025 µM ([1]; dose 25 nM, 6 days, normalized to vehicle control, read-out: GranPs normalized cell count): 0.213%
- activity at 0.1 µM ([1]; dose 100 nM, 6 days, normalized to vehicle control, read-out: GranPs normalized cell count): 0.0154%
- activity at 0.5 µM ([1]; dose 500 nM, 6 days, normalized to vehicle control, read-out: GranPs normalized cell count): 0.032%
- activity at 2.5 µM ([1]; dose 2500 nM, 6 days, normalized to vehicle control, read-out: GranPs normalized cell count): 0.0153%
- Emax ([1]; parameter from QSP model fitting, read-out: Emax_drug_GranP): 0.04%
- viability at 0.0002 µM ([2]; dose 0.2 nM): 102%
- viability at 0.001 µM ([2]; dose 1 nM): 110%
- viability at 0.005 µM ([2]; dose 5 nM): 75.9%
- viability at 0.025 µM ([2]; dose 25 nM): 1.22%
- viability at 0.1 µM ([2]; dose 100 nM): 0.201%
- viability at 0.5 µM ([2]; dose 500 nM): 0.291%
- viability at 2.5 µM ([2]; dose 2500 nM): 0.232%
- activity at 0.0002 µM ([3]; dose 0.2 nM, 6 days, normalized to vehicle control, read-out: ErythII normalized cell count): 90.9%
- activity at 0.001 µM ([3]; dose 1 nM, 6 days, normalized to vehicle control, read-out: ErythII normalized cell count): 107%
- activity at 0.005 µM ([3]; dose 5 nM, 6 days, normalized to vehicle control, read-out: ErythII normalized cell count): 56.5%
- activity at 0.025 µM ([3]; dose 25 nM, 6 days, normalized to vehicle control, read-out: ErythII normalized cell count): 0.128%
- activity at 0.1 µM ([3]; dose 100 nM, 6 days, normalized to vehicle control, read-out: ErythII normalized cell count): 0.0395%
- activity at 0.5 µM ([3]; dose 500 nM, 6 days, normalized to vehicle control, read-out: ErythII normalized cell count): 0.0174%
- activity at 2.5 µM ([3]; dose 2500 nM, 6 days, normalized to vehicle control, read-out: ErythII normalized cell count): 0.00196%
- Emax ([3]; parameter from QSP model fitting, read-out: Emax_drug_ErythroidII): 7.1%
- activity at 0.0002 µM ([4]; Homo sapiens, 144 h, dose 0.2 nM, 6 days, normalized to vehicle control, read-out: ErythI normalized cell count): 124%
- activity at 0.001 µM ([4]; Homo sapiens, 144 h, dose 1 nM, 6 days, normalized to vehicle control, read-out: ErythI normalized cell count): 112%
- activity at 0.005 µM ([4]; Homo sapiens, 144 h, dose 5 nM, 6 days, normalized to vehicle control, read-out: ErythI normalized cell count): 83.5%
- activity at 0.025 µM ([4]; Homo sapiens, 144 h, dose 25 nM, 6 days, normalized to vehicle control, read-out: ErythI normalized cell count): 2.87%
- activity at 0.1 µM ([4]; Homo sapiens, 144 h, dose 100 nM, 6 days, normalized to vehicle control, read-out: ErythI normalized cell count): 0.445%
- activity at 0.5 µM ([4]; Homo sapiens, 144 h, dose 500 nM, 6 days, normalized to vehicle control, read-out: ErythI normalized cell count): 0.574%
- activity at 2.5 µM ([4]; Homo sapiens, 144 h, dose 2500 nM, 6 days, normalized to vehicle control, read-out: ErythI normalized cell count): 0.379%
- Emax ([4]; Homo sapiens, 144 h, parameter from QSP model fitting, read-out: Emax_drug_ErythroidI): 147%
- EmaxCK,ErythI [4, 9]: 0.466 day⁻¹
- activity at 0.0002 µM ([5]; dose 0.2 nM, 6 days, normalized to vehicle control, read-out: Neut normalized cell count): 88.3%
- activity at 0.001 µM ([5]; dose 1 nM, 6 days, normalized to vehicle control, read-out: Neut normalized cell count): 80.1%
- activity at 0.005 µM ([5]; dose 5 nM, 6 days, normalized to vehicle control, read-out: Neut normalized cell count): 52.3%
- activity at 0.025 µM ([5]; dose 25 nM, 6 days, normalized to vehicle control, read-out: Neut normalized cell count): 0.045%
- activity at 0.1 µM ([5]; dose 100 nM, 6 days, normalized to vehicle control, read-out: Neut normalized cell count): 0.0394%
- activity at 0.5 µM ([5]; dose 500 nM, 6 days, normalized to vehicle control, read-out: Neut normalized cell count): 0%
- activity at 2.5 µM ([5]; dose 2500 nM, 6 days, normalized to vehicle control, read-out: Neut normalized cell count): 0%
- Emax ([5]; parameter from QSP model fitting, read-out: Emax_drug_Neut): 21.4%
- activity at 0.0002 µM ([6]; dose 0.2 nM, 6 days, normalized to vehicle control, read-out: MPPs normalized cell count): 78.7%
- activity at 0.001 µM ([6]; dose 1 nM, 6 days, normalized to vehicle control, read-out: MPPs normalized cell count): 90%
- activity at 0.005 µM ([6]; dose 5 nM, 6 days, normalized to vehicle control, read-out: MPPs normalized cell count): 71.3%
- activity at 0.025 µM ([6]; dose 25 nM, 6 days, normalized to vehicle control, read-out: MPPs normalized cell count): 28%
- activity at 0.1 µM ([6]; dose 100 nM, 6 days, normalized to vehicle control, read-out: MPPs normalized cell count): 2.32%
- activity at 0.5 µM ([6]; dose 500 nM, 6 days, normalized to vehicle control, read-out: MPPs normalized cell count): 0.649%
- activity at 2.5 µM ([6]; dose 2500 nM, 6 days, normalized to vehicle control, read-out: MPPs normalized cell count): 0.406%
- Emax ([6]; parameter from QSP model fitting, read-out: Emax_drug_MPP): 0.18%
- activity at 0.0002 µM ([7]; Homo sapiens, Monocyte, 144 h, dose 0.2 nM, 6 days, normalized to vehicle control, read-out: MonoPs normalized cell count): 102%
- activity at 0.001 µM ([7]; Homo sapiens, Monocyte, 144 h, dose 1 nM, 6 days, normalized to vehicle control, read-out: MonoPs normalized cell count): 112%
- activity at 0.005 µM ([7]; Homo sapiens, Monocyte, 144 h, dose 5 nM, 6 days, normalized to vehicle control, read-out: MonoPs normalized cell count): 89%
- activity at 0.025 µM ([7]; Homo sapiens, Monocyte, 144 h, dose 25 nM, 6 days, normalized to vehicle control, read-out: MonoPs normalized cell count): 0.562%
- activity at 0.1 µM ([7]; Homo sapiens, Monocyte, 144 h, dose 100 nM, 6 days, normalized to vehicle control, read-out: MonoPs normalized cell count): 0.118%
- activity at 0.5 µM ([7]; Homo sapiens, Monocyte, 144 h, dose 500 nM, 6 days, normalized to vehicle control, read-out: MonoPs normalized cell count): 0.188%
- activity at 2.5 µM ([7]; Homo sapiens, Monocyte, 144 h, dose 2500 nM, 6 days, normalized to vehicle control, read-out: MonoPs normalized cell count): 0.286%
- Emax ([7]; Homo sapiens, Monocyte, 144 h, parameter from QSP model fitting, read-out: Emax_drug_MonoP): 156%
- EmaxCK,MonoP [7, 9]: 0.556 day⁻¹
- EmaxT effects across cell types (overall statement) [8]: > 1.0
